The values below come from patent publication US10759826B2, “15β-substituted estrone derivatives as selective inhibitors of 17β-hydroxysteroid-dehydrogenases, method of preparation and use thereof” (USTAV ORGANICKE CHEMIE A BIOCHEMIE AV CR, V.V.I., priority 2016, dated 2020).

SMILES strings stand for the structures.

The subject of one data set is HCT116p53-/-. Put plainly: MTT cytotoxicity assay, HCT116p53-/-. The settings on record: Homo sapiens. In kind it is cell-based. An excerpt: (§1) Compounds 5, 6, 7, 9, 14 and 15 were used for evaluation of antitumor activity. MTT cytotoxicity assay was used in vitro on cell lines derived from normal tissues and from tumors. Specifically, these were the K562 line (human myeloid leukemia), K562-Tax (human myeloid leukemia resistant to taxol and overexpressing PgP protein for multidrug resistance), CEM (T-lymphoblastic leukemia), CEM-DNR bulk (T-lymphoblastic leukemia resistant doxorubicin, lacking the expression of the target gene for inhibitors of topoisomerase II alpha), A549 line (human lung adenocarcinoma), HCT116p53 wt (human colon cancer), HCT116p53−/− (human colon cancer, mutant p53), U2OS line of human osteosarcoma and two fibroblast lines MRC5 and BJ as examples of non-tumor cells. Expression characteristics, profiles of susceptibility to classical antitumor drugs and methodology of the MTT cytotoxicity assay were repeatedly published (e.g. Noskova et al. Neoplasma 2002, 49, 418; S̆arek et. al. J. Med. Chem. 2003, 46, 25, 5402).
Background: Tetrazolium assays rely on reduction of a dye to a coloured formazan, in cell work by metabolically active cells.

The subject of the next data set is A549. Briefly: MTT cytotoxicity assay, A549. In kind it is cell-based. The settings on record: Homo sapiens.
Excerpt: as §1

The test system of the next data set is CEM-DNR-bulk. Briefly: MTT cytotoxicity assay, CEM-DNR-bulk. The class given is cell-based.
Excerpt: as §1

The test system of another data set is K562. Put plainly: MTT cytotoxicity assay, K562. The class given is cell-based. The settings on record: Homo sapiens.
Excerpt: as §1

In another data set the target is T1, human 17βHSD type 5 (Homo sapiens, UniProt P42330).
T1 construct: made in house; host or cells: bacteria (Escherichia coli); supernatant of the lysate
T1 sequence (P42330 1-323): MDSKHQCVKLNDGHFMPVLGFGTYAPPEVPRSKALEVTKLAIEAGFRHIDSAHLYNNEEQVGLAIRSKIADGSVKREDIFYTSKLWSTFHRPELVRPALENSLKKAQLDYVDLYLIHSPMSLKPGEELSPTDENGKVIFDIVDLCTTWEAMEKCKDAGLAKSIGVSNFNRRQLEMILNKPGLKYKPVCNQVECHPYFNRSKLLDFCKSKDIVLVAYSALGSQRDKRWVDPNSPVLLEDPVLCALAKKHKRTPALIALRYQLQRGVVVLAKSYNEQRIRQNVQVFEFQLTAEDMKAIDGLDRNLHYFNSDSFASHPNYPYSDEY
Briefly: Inhibition of recombinant 17βHSD type 5, tritium-labeled substrate conversion. As to conditions: 1 μmol · l^−1 test substance. In kind it is biochemical. The method, then: (§2) The inhibitory activity of the test substances was determined for individual isoenzymes from the 17βHSD family, specifically these were the types 1, 2, 3, 4, 5 and 7. Escherichia coli and mammalian cells expression systems were used for recombinant expression of individual isozymes of human 17βHSD. Only in the case of 17HSD5 the enzyme was partially purified and supernatant obtained by centrifugation of the bacterial lysate was used for testing. Systems expressing specific 17βHSD type were suspended in a reaction buffer and incubated with tritium-labeled substrates and respective cofactors at 37° C. in two parallel tests: the control arrangement (DMSO without the inhibitor) and the test arrangement (DMSO with the inhibitor). DMSO serves as a negative control in this case. After 20-30% of the substrate was converted by the activity of the enzyme to the product in a control test, both tests were terminated. Substrate and product from the test arrangement were isolated by SPE (solid phase extraction), and then separated by reverse phase HPLC. Substrate conversion was determined by integration of the signals of the substrate and product, and was expressed in %. For the purposes of the subsequent calculation of enzyme inhibition, the conversion of the control test was designated as 0% inhibition. All tests were performed in triplicates. IC50 values were subsequently determined by a standard method using the “One Ligand Binding” model of SigmaPlot kinetics module (Schustera et. al. J. Ster. Biochem. Mol. Biol. 2011, 125, 148; Möller et. al. Biioorg. Med. Chem. Lett. 2009, 19, 6740; Möller et. al. PLoS One, 2010, 5, 6, e10969).

For data set [1], the target named is T2, human 17βHSD1 (Homo sapiens, UniProt P14061).
T2 sequence (P14061 1-328): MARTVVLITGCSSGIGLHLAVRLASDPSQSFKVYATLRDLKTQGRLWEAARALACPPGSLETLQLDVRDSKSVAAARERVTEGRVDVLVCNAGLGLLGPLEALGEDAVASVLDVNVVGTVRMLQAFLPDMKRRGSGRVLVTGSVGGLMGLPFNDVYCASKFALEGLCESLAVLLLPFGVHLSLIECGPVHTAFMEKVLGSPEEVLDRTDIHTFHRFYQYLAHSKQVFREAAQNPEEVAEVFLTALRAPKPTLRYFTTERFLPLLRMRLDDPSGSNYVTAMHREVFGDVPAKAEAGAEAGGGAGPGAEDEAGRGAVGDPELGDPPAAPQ
Briefly: 17βHSD inhibition in CHO cells transfected with human 17βHSD1, E1 in supernatant. In kind it is cell-based. More on the design: expressed in transfected cells. As to conditions: 10 μmol·l^−1. The method, then: (§3) For this experiment, non-cytotoxic concentrations of estrone derivative (10 μmol·l^−1) were used. E1 levels were determined by an immuno-enzymatic assay.

In a further data set the test system is U2OS. Briefly: MTT cytotoxicity assay, U2OS. The class given is cell-based. As to conditions: Homo sapiens.
Excerpt: as §1

Another data set relates to HCT116p53 wt. Put plainly: MTT cytotoxicity assay, HCT116p53 wt. In kind it is cell-based. As to conditions: Homo sapiens.
Excerpt: as §1

Data set [2] addresses T2, human 17βHSD1. Put plainly: 17βHSD inhibition in MCF-7 cells transfected with human 17βHSD1, E1 in supernatant. Further details: expressed in transfected cells; host or cells: MCF-7. In kind it is cell-based. As to conditions: 10 μmol·l^−1. The protocol: as §3
Another data set deals with T3, human 17βHSD type 1 (Homo sapiens, UniProt P14061).
T3 construct: made in house; expressing system suspended in buffer, not purified
T3 sequence (P14061 1-328): T2 sequence (P14061 1-328)
Put plainly: Inhibition of recombinant 17βHSD type 1, tritium-labeled substrate conversion. In kind it is biochemical. As to conditions: for inhibition at 0.1 µM: 0.1 μmol · l^−1 test substance; for inhibition at 0.1 µM / inhibition at 1 µM: read-out: % of inhibition of human 17βHSD1; for inhibition at 1 µM: 1 μmol · l^−1 test substance; for IC50: read-out: 17βHSD1 IC50. The method, then: as §2

A further data set concerns CEM. Briefly: MTT cytotoxicity assay, CEM. In kind it is cell-based. The settings on record: Homo sapiens, CCRF-CEM.
Excerpt: as §1

A further data set deals with MRCS. Put plainly: MTT cytotoxicity assay, MRC5 fibroblasts. The class given is cell-based. As to conditions: Homo sapiens, Fibroblast, non-tumor fibroblasts.
Excerpt: as §1

For a further data set, the system named is K562-Tax. Briefly: MTT cytotoxicity assay, K562-Tax. As to conditions: Homo sapiens. The class given is cell-based.
Excerpt: as §1

In the next data set the test system is BJ. Briefly: MTT cytotoxicity assay, BJ fibroblasts. As to conditions: Homo sapiens, non-tumor fibroblasts. The class given is cell-based.
Excerpt: as §1

With `C[C@]12CC[C@@H]3c4ccc(O)cc4CC[C@H]3[C@@H]1[C@H](CCc1ccc(F)cc1)CC2=O` [Compound 5, 15β-(4-Fluorophenethyl)-3-hydroxy-estra-1,3,5(10)-trien-17-one], the melting point worked out at 164 °C. The midpoint of inhibition with HCT116p53-/-, the IC50, lay at 30.5 µM. For the same molecule, 35.8 µM corresponded to half-maximal inhibition in the data set on A549 (IC50). For the same molecule, the 50% inhibitory concentration (IC50) in the data set on CEM-DNR-bulk was 28.2 µM. In addition, 25.2 µM corresponded to half-maximal inhibition in the data set with K562 (IC50). Besides, at human 17βHSD type 5, the “% of inhibition of human 17βHSD5” value is recorded as 70%. For the same molecule, the “E1 in supernatant, CHO” value at human 17βHSD1 [1] (8 hr.) stood at 3194 pg/mL. On human 17βHSD1 [1] (24 hr.), the “E1 in supernatant, CHO” value was 1576 pg/mL. Further, the IC50 with U2OS amounted to 30.4 µM. In the data set with HCT116p53 wt, this molecule returned a half-maximal inhibitory concentration (IC50) of 29.2 µM. Moreover, the “E1 in supernatant, MCF-7” value at human 17βHSD1 [2] (8 hr.) is 3373 pg/mL. Further, the “E1 in supernatant, MCF-7” value at human 17βHSD1 [2] (24 hr.) was 2236 pg/mL. For the same molecule, on human 17βHSD type 1, the inhibition at 0.1 µM worked out at 72%, the inhibition at 1 µM was 92% and the IC50 was 0.055 µM. Also, half-maximal inhibition in the data set with CEM (IC50) required 25.2 µM. In addition, the IC50 in the data set on MRCS worked out at 18.4 µM. In the data set on K562-Tax, this molecule showed an IC50 of 19.3 µM. For the same molecule, in the data set with BJ, the midpoint of inhibition, the IC50, lay at 24.3 µM.
`Cc1ccc(CC[C@@H]2CC(=O)[C@@]3(C)CC[C@@H]4c5ccc(O)cc5CC[C@H]4[C@H]23)cc1` [Compound 15, 3-Hydroxy-15β-(4-methylphenethyl)-estra-1,3,5(10)-trien-17-one] showed a melting point of 159 °C. In the data set with HCT116p53-/-, this molecule gave an IC50 of 29.4 µM. Further, in the data set with A549, the IC50 came to 28.2 µM. In addition, the IC50 in the data set on CEM-DNR-bulk is 24.1 µM. In the data set on K562, this molecule gave an IC50 of 23.8 µM. Further, the “% of inhibition of human 17βHSD5” value on human 17βHSD type 5 was found to be 86%. For the same molecule, the “E1 in supernatant, CHO” value at human 17βHSD1 [1] (8 hr.) was 750 pg/mL. The “E1 in supernatant, CHO” value at human 17βHSD1 [1] (24 hr.) is 554 pg/mL. Moreover, half-maximal inhibition with U2OS (IC50) required 28.9 µM. For the same molecule, it took 28.3 µM to reach half-maximal inhibition with HCT116p53 wt (IC50). The “E1 in supernatant, MCF-7” value on human 17βHSD1 [2] (8 hr.) stood at 719 pg/mL. In addition, the “E1 in supernatant, MCF-7” value at human 17βHSD1 [2] (24 hr.) was 948 pg/mL. Moreover, on human 17βHSD type 1, the inhibition at 0.1 µM stood at 87%, the inhibition at 1 µM was determined as 100% and the IC50 was found to be 0.008 µM. The molecule further gave an IC50 in the data set with CEM of 21.7 µM. The same molecule displayed an IC50 with MRCS of 19.6 µM. Besides, the IC50 in the data set with K562-Tax came out at 13.8 µM. In the data set on BJ, this molecule yielded an IC50 of 27.9 µM.
The molecule `C[C@]12CC[C@@H]3c4ccc(O)cc4CC[C@H]3[C@@H]1[C@H](CCc1ccc(Cl)cc1)CC2=O` [Compound 6, 15β-(4-Chlorophenethyl)-3-hydroxy-estra-1,3,5(10)-trien-17-one] had a melting point of 168 °C. The IC50 in the data set on HCT116p53-/- was determined as 30.8 µM. This molecule came in with an IC50 with A549 of 35.8 µM. In addition, the half-maximal inhibitory concentration (IC50) in the data set on CEM-DNR-bulk was determined as 24.6 µM. In the data set on K562, this molecule came in with an IC50 of 26.9 µM. Also, on human 17βHSD type 5, the “% of inhibition of human 17βHSD5” value was 90%. Moreover, the “E1 in supernatant, CHO” value on human 17βHSD1 [1] (8 hr.) stood at 4137 pg/mL. Also, the “E1 in supernatant, CHO” value on human 17βHSD1 [1] (24 hr.) is 1804 pg/mL. The molecule further registered a half-maximal inhibitory concentration (IC50) in the data set with U2OS of 27.9 µM. Moreover, the IC50 in the data set on HCT116p53 wt amounted to 29.3 µM. Besides, the “E1 in supernatant, MCF-7” value on human 17βHSD1 [2] (8 hr.) worked out at 4251 pg/mL. Moreover, the “E1 in supernatant, MCF-7” value at human 17βHSD1 [2] (24 hr.) worked out at 3323 pg/mL. On human 17βHSD type 1, the inhibition at 0.1 µM was 90%, the inhibition at 1 µM turned out to be 97% and the half-inhibitory concentration (IC50) was 0.009 µM. In the data set on CEM, this molecule registered an IC50 of 16.3 µM. Moreover, the concentration for half-maximal inhibition (IC50) with MRCS was 21 µM. In the data set with K562-Tax, this molecule returned an IC50 of 13.2 µM. In addition, the IC50 in the data set with BJ is 28.8 µM.

As usually defined, the IC50 is the concentration needed to halve the response being measured. As a reminder, the melting point is the temperature, or range, at which the solid turns liquid. Broadly, the inhibition is the percentage by which the read-out fell short of the control.
